# Reference: article PMC12472391, “Borylated Five-Membered Ring Iminosugars: Synthesis, Spectroscopic Analysis, and Biological Evaluation for Glycosidase Inhibition and Anticancer Properties for Application in Boron Neutron Capture Therapy (BNCT)—Part 1” (Pharmaceuticals, 2025)
# Key:
# α-D-glucosidase (rice) = α-D-glucosidase (rice) (Oryza sativa subsp. japonica, UniProt Q653V7); assay: Glycosidase inhibition, Table 6 (Laboratory 1); assay type: biochemical
# [1] = target: T1, amyloglucosidase (from A. niger) (Aspergillus niger, UniProt P69328); assay: Glycosidase inhibition, Table 6 (Laboratory 1); assay type: biochemical
# T1 construct: purchased Sigma-Aldrich Co
# Excerpt: (§1) The enzymes α-D-glucosidase (from yeast), β-D-glucosidases (from almond and bovine liver), α-D-galactosidase (from coffee beans), β-D-galactosidase (from bovine liver), α-D-mannosidase (from Jack bean), β-D-mannosidase (from snail), α-L-rhamnosidase (from Penicillium decumbens), α-L-fucosidase (from bovine kidney), trehalase (from porcine kidney), β-D-glucuronidases (from E. coli and bovine liver), amyloglucosidase (from A. niger), para-nitrophenyl glycosides, and various disaccharides were purchased from Sigma-Aldrich Co. (St. Louis, MO, USA).
# (§2) Brush border membranes were prepared from the rat small intestine according to the method of Kessler et al., and were assayed at pH 6.8 for rat intestinal maltase using maltose. For rat intestinal maltase, porcine kidney trehalase, and A. niger amyloglucosidase activities, the reaction mixture contained maltose (25 mM) and the appropriate amount of enzyme, and the incubations were performed for 10–30 min at 37 °C. The reaction was stopped by heating at 100 °C for 3 min. After centrifugation (600× g; 10 min), the resulting reaction mixture was added to the Glucose CII-test Wako (Wako Pure Chemical Ind., Osaka, Japan). The absorbance at 505 nm was measured to determine the amount of the released D-glucose. Other glycosidase activities were determined using an appropriate para-nitrophenyl glycoside as substrate at the optimum pH of each enzyme. The reaction mixture contained the substrate (2 mM) and the appropriate amount of enzyme. The reaction was stopped by the addition of Na2CO3 (400 mM). The released para-nitrophenol was measured spectrometrically at 400 nm. All reactions run in methanol.
# [2] = target: T2, α,α-trehalase (porcine kidney) (Sus scrofa, UniProt I3LIR5); assay: Glycosidase inhibition, Table 6 (Laboratory 1); assay type: biochemical
# T2 construct: purchased Sigma-Aldrich Co
# T2 sequence (I3LIR5 24-583): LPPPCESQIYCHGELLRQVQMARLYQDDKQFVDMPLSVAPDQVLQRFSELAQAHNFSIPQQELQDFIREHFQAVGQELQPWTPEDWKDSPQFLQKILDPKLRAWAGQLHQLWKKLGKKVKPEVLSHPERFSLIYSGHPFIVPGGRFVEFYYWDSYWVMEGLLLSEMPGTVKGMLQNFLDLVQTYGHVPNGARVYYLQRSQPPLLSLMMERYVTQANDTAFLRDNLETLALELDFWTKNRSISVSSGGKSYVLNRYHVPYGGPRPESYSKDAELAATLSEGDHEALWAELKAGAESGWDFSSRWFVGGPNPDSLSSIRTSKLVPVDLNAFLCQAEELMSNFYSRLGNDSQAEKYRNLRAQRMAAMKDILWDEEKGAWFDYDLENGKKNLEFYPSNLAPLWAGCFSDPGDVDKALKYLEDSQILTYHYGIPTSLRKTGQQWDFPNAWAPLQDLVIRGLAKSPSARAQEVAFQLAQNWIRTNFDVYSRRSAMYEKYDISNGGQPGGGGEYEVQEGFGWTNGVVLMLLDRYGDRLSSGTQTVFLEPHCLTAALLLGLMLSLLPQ
# Excerpt: as §1, §2
# [3] = target: T3, α-D-galactosidase (from coffee beans) (Coffea arabica, UniProt Q42656); assay: Glycosidase inhibition, Table 6 (Laboratory 1); assay type: biochemical
# T3 construct: purchased Sigma-Aldrich Co
# Excerpt: as §1, §2
# [4] = target: T4, α-D-glucosidase (from yeast) (Saccharomyces cerevisiae, UniProt P53341); assay: Glycosidase inhibition, Table 6 (Laboratory 1); assay type: biochemical
# T4 construct: purchased Sigma-Aldrich Co
# Excerpt: as §1, §2
# [5] = test system: α-D-glucosidase (rat intestinal maltase); assay: Glycosidase inhibition, Table 6 (Laboratory 1); assay type: biochemical
# Excerpt: as §1, §2
# [6] = target: T5, α-L-fucosidase (from bovine kidney) (Bos taurus, UniProt Q2KIM0); assay: Glycosidase inhibition, Table 6 (Laboratory 1); assay type: biochemical
# T5 construct: purchased Sigma-Aldrich Co
# T5 sequence (Q2KIM0 23-468): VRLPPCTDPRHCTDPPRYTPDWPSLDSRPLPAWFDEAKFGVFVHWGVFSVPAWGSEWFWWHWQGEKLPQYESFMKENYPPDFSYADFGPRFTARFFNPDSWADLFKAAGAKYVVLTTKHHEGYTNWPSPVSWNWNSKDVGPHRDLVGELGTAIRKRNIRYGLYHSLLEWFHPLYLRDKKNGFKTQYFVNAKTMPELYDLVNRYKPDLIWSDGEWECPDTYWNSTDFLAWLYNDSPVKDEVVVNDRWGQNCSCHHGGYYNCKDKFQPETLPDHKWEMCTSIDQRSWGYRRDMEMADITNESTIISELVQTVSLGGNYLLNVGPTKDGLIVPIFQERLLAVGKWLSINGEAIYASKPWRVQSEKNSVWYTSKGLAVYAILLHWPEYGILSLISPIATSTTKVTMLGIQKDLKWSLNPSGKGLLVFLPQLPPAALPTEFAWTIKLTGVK
# Excerpt: as §1, §2
# [7] = target: T6, β-D-galactosidase (bovine liver) (Bos taurus, UniProt Q58D55); assay: Glycosidase inhibition, Table 6 (Laboratory 1); assay type: biochemical
# T6 sequence (Q58D55 28-653): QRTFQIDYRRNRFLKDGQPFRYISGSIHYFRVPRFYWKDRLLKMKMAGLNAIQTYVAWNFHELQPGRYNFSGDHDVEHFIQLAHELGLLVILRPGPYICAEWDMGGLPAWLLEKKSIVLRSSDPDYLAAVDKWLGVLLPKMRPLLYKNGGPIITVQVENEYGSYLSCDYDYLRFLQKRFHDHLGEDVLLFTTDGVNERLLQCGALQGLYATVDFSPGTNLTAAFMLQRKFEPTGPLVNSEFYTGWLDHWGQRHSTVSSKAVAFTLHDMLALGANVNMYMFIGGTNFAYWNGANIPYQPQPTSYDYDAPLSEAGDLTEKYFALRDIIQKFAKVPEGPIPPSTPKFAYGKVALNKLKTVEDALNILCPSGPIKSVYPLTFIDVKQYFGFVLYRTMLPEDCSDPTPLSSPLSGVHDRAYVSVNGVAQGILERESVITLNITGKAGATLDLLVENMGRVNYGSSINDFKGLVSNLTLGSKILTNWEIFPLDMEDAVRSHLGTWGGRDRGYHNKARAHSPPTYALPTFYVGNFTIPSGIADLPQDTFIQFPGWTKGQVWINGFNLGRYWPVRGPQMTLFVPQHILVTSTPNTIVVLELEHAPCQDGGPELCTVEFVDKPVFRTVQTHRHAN
# Excerpt: as §1, §2
# β-D-glucosidase (almond) = assay: Glycosidase inhibition, Table 6 (Laboratory 1); assay type: biochemical
# Excerpt: as §1, §2
# [8] = test system: β-D-glucosidase (bovine liver); assay: Glycosidase inhibition, Table 6 (Laboratory 1); assay type: biochemical
# Excerpt: as §1, §2
# [9] = target: T7, β-D-glucuronidase (E. coli) (Escherichia coli, UniProt P05804); assay: Glycosidase inhibition, Table 6 (Laboratory 1); assay type: biochemical
# T7 construct: purchased Sigma-Aldrich Co
# Excerpt: as §1, §2
# [10] = test system: β-D-glucuronidase (bovine liver); assay: Glycosidase inhibition, Table 6 (Laboratory 1); assay type: biochemical
# Excerpt: as §1, §2
# [11] = test system: β-D-mannosidase (from snail); assay: Glycosidase inhibition, Table 6 (Laboratory 1); assay type: biochemical
# Excerpt: as §1, §2
# [12] = Appearance: 1 mL of water added to 1 mg of solid, and mixed; assay type: physicochemical
# T1 sequence (P69328 25-640): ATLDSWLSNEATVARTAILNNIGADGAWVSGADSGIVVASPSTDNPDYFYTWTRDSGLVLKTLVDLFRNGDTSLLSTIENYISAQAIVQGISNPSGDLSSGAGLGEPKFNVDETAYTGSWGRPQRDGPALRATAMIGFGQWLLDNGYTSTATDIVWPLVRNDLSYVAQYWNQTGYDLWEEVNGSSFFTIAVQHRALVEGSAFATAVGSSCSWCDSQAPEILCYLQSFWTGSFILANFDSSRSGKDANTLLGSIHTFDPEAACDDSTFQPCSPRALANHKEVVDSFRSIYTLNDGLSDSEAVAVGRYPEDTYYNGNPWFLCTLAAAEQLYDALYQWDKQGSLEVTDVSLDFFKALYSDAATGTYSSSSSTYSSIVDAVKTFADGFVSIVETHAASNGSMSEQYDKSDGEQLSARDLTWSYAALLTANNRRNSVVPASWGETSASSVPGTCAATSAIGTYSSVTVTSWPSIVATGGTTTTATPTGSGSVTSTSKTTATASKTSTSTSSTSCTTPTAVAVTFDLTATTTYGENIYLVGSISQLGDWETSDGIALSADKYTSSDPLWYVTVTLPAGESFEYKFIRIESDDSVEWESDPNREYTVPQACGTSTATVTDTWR
# T7 sequence (P05804 whole entry): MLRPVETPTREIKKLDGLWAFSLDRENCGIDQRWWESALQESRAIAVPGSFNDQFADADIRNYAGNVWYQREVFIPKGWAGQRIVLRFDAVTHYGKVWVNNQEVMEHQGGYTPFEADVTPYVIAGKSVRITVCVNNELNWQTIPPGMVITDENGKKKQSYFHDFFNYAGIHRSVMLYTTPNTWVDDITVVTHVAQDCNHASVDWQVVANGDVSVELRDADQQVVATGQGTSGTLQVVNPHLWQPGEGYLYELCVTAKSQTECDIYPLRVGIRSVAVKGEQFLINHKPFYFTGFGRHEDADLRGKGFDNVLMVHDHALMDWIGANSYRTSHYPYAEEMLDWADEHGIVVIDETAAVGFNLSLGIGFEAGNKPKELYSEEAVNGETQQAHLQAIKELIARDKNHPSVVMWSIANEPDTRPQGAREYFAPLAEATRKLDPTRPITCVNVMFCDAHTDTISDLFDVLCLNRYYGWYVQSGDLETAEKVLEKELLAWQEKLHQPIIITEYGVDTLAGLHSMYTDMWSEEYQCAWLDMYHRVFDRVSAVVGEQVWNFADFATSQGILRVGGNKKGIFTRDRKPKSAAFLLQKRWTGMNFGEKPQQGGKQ
# α-D-glucosidase (rice), sequence (Q653V7 34-885): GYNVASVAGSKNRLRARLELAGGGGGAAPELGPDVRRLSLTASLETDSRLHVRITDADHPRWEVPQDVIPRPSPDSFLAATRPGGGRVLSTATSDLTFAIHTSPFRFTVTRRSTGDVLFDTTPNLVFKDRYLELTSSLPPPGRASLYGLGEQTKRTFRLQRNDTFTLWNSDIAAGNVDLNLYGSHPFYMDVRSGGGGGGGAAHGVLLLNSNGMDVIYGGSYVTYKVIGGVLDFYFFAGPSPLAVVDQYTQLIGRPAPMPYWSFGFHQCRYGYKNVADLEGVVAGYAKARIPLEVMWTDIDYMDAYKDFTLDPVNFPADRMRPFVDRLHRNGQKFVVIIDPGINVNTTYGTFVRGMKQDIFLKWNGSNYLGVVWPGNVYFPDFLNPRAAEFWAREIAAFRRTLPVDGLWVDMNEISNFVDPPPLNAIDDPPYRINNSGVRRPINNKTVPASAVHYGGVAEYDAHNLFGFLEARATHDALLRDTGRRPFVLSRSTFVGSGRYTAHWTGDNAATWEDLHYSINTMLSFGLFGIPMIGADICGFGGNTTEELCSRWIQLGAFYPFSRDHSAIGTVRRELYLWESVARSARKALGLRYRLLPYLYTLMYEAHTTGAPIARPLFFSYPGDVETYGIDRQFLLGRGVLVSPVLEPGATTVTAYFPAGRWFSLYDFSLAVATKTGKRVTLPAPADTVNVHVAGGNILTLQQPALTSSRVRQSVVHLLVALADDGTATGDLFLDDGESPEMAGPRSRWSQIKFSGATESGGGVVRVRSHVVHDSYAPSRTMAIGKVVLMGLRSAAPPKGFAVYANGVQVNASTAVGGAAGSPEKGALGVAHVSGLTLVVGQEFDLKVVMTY
# T4 sequence (P53341 whole entry): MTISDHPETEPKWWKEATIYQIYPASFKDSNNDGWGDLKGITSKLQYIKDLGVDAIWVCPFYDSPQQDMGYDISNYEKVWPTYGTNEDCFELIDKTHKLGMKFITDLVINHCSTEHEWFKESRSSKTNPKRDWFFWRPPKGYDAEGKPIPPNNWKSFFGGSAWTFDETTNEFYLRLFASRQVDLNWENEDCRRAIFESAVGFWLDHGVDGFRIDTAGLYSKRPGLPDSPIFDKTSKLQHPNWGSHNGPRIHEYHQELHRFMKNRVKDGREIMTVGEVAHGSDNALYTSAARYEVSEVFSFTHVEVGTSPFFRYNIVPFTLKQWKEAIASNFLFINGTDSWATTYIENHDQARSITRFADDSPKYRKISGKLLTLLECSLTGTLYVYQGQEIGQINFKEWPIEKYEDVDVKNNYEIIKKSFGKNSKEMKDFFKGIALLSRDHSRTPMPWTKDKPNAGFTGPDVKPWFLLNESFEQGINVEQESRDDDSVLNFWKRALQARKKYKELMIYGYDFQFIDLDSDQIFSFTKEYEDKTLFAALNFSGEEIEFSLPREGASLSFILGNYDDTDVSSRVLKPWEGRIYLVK
# T3 sequence (Q42656 16-378): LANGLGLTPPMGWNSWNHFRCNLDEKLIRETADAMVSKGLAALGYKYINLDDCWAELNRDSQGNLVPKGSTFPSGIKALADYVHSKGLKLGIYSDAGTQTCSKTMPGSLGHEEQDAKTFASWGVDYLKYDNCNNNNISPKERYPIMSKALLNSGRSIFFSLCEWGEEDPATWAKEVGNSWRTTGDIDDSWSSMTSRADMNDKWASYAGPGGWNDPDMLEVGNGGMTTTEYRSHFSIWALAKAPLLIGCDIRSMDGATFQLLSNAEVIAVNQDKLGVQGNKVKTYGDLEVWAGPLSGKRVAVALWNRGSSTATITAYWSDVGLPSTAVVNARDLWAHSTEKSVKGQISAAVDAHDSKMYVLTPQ
molecule,measurement,setting,value
"N[C@@H](Cc1ccc(B(O)O)cc1)C(=O)O [^10B-BPA, reference compound]","α-D-Glucosidase Rice, inhibition % at 100 μM",α-D-glucosidase (rice); 100 μM,^c NI ^d (0%)
same,"Amyloglucosidase A. niger, inhibition % at 100 μM",[1]; 100 μM,^c NI ^d (0%)
same,"α,α-Trehalase Porcine Kidney, inhibition % at 100 μM",[2]; 100 μM,^c NI ^d (0%)
same,"α-D-Galactosidase Coffee Beans, inhibition % at 100 μM",[3]; 100 μM,^c NI ^d (1.2%)
same,"α-D-Glucosidase Yeast, inhibition % at 100 μM",[4]; 100 μM,^c NI ^d (0%)
same,"α-D-Glucosidase Rat Intestinal Maltase, inhibition % at 100 μM",[5],^c NI ^d (0%)
same,"α-L-Fucosidase Bovine Kidney, inhibition % at 100 μM",[6]; 100 μM,^c NI ^d (0%)
same,"β-D-Galactosidase Bovine Liver, inhibition % at 100 μM",[7]; 100 μM,^c NI ^d (0%)
same,"β-D-Glucosidase Almond, inhibition % at 100 μM",β-D-glucosidase (almond),^c NI ^d (0%)
same,"β-D-Glucosidase Bovine Liver, inhibition % at 100 μM",[8],^c NI ^d (14.2%)
same,"β-D-Glucuronidase E. coli, inhibition % at 100 μM",[9]; 100 μM,^c NI ^d (2.4%)
same,"β-D-Glucuronidase Bovine Liver, inhibition % at 100 μM",[10],^c NI ^d (0%)
same,"β-D-Mannosidase Snail, inhibition % at 100 μM",[11],^c NI ^d (0.3%)
same,Appearance,[12],Some in solution with undissolved sediment
"CC1(C)O[C@H]2O[C@H]3[C@@H]([C@H]2O1)N(Cc1ccccc1)C[C@H]3O [Compound 3, N-Benzyl-3,6-dideoxy-3,6-imino-1,2-O-isopropylidene-α-D-gulofuranose]",inhibition at 100 µM,α-D-glucosidase (rice),0%
same,inhibition at 100 µM,[1],0%
same,inhibition at 100 µM,[2],0%
same,inhibition at 100 µM,[3],9.5%
same,inhibition at 100 µM,[4],4.7%
same,"α-D-Glucosidase Rat Intestinal Maltase, inhibition % at 100 μM",[5],^c NI ^d (0%)
same,inhibition at 100 µM,[6],0%
same,inhibition at 100 µM,[7],26.1%
same,"β-D-Glucosidase Almond, inhibition % at 100 μM",β-D-glucosidase (almond),^c NI ^d (0%)
same,"β-D-Glucosidase Bovine Liver, inhibition % at 100 μM",[8],^c NI ^d (31.9%)
same,inhibition at 100 µM,[9],2.4%
same,"β-D-Glucuronidase Bovine Liver, inhibition % at 100 μM",[10],^c NI ^d (0%)
same,"β-D-Mannosidase Snail, inhibition % at 100 μM",[11],^c NI ^d (2.7%)
same,Appearance,[12],In solution
"borocaptate sodium [BSH, reference compound]","α-D-Glucosidase Rice, inhibition % at 1000 μM",α-D-glucosidase (rice); 1000 μM,^a NI ^b (0%)
same,"Amyloglucosidase A. niger, inhibition % at 1000 μM",[1]; 1000 μM,^a NI ^b (0%)
same,"α,α-Trehalase Porcine Kidney, inhibition % at 1000 μM",[2]; 1000 μM,^a NI ^b (4.2%)
same,"α-D-Galactosidase Coffee Beans, inhibition % at 1000 μM",[3]; 1000 μM,^a NI ^b (12.3%)
same,"α-D-Glucosidase Yeast, inhibition % at 1000 μM",[4]; 1000 μM,^a NI ^b (6.9%)
same,"α-D-Glucosidase Rat Intestinal Maltase, inhibition % at 1000 μM",[5]; 1000 μM,^a NI ^b (0%)
same,"α-L-Fucosidase Bovine Kidney, inhibition % at 1000 μM",[6]; 1000 μM,^a NI ^b (0%)
same,"β-D-Galactosidase Bovine Liver, inhibition % at 1000 μM",[7]; 1000 μM,^a NI ^b (0%)
same,"β-D-Glucosidase Almond, inhibition % at 1000 μM",β-D-glucosidase (almond); 1000 μM,^a NI ^b (0%)
same,"β-D-Glucosidase Bovine Liver, inhibition % at 1000 μM",[8]; 1000 μM,^a NI ^b (15%)
same,"β-D-Glucuronidase E. coli, inhibition % at 1000 μM",[9]; 1000 μM,^a NI ^b (6%)
same,"β-D-Glucuronidase Bovine Liver, inhibition % at 1000 μM",[10]; 1000 μM,^a NI ^b (19.6%)
same,"β-D-Mannosidase Snail, inhibition % at 1000 μM",[11]; 1000 μM,^a NI ^b (19.2%)
same,Appearance,[12],In solution
